Source: ChEMBL document CHEMBL5625170, “Design, synthesis, and biological evaluation of novel penindolone derivatives as potential inhibitors of hemagglutinin-mediated membrane fusion” (Eur J Med Chem, 2023)

Columns and labels:
[1] = Cytotoxicity against dog MDCK cells assessed as cell viability measured after 48 hrs by MTT assay; assay type: toxicity, cell-based, Canis lupus familiaris
[2] = Selectivity index, ratio of CC50 for cytotoxicity against dog MDCK cells to IC50 for anti-viral activity against Influenza A virus (A/Puerto Rico/8/34 infected in MDCK cells; assay type: toxicity, cell-based; details: read-out: Selectivity Index

Row | SMILES | CC50 at 48 h [1] | selectivity ratio [2]
1 | CC(=O)c1cc(C)c(O)c(Cc2c(Cc3c(O)c(C)cc(C(C)=O)c3O)n(Cc3ccc(F)cc3)c3ccccc23)c1O | > 300 µM | 
2 | CC(=O)c1cc(C)c(O)c(Cc2[nH]c3ccc(-c4ccccc4F)cc3c2Cc2c(O)c(C)cc(C(C)=O)c2O)c1O | > 300 µM | 
3 | CC(=O)c1cc(C)c(O)c(Cc2[nH]c3cc(-c4cccc(F)c4)ccc3c2Cc2c(O)c(C)cc(C(C)=O)c2O)c1O | > 300 µM | 
4 | COc1ccc2[nH]c(Cc3c(O)c(C)cc(C(C)=O)c3O)c(Cc3c(O)c(C)cc(C(C)=O)c3O)c2c1 | > 300 µM | > 18.9
5 | CC(=O)c1cc(C)c(O)c(Cc2[nH]c3ccc(-c4cccc(O)c4)cc3c2Cc2c(O)c(C)cc(C(C)=O)c2O)c1O | 152 µM | 
6 | CC(=O)c1cc(C)c(O)c(Cc2[nH]c3ccc(-c4cc(C(C)(C)C)cc(C(C)(C)C)c4)cc3c2Cc2c(O)c(C)cc(C(C)=O)c2O)c1O | > 300 µM | 
7 | COc1ccc(-c2ccc3[nH]c(Cc4c(O)c(C)cc(C(C)=O)c4O)c(Cc4c(O)c(C)cc(C(C)=O)c4O)c3c2)cc1OC | > 300 µM | > 16.6
8 | CC(=O)c1cc(C)c(O)c(Cc2[nH]c3ccc(-c4ccc(F)cc4)cc3c2Cc2c(O)c(C)cc(C(C)=O)c2O)c1O | 212 µM | 
9 | CC(=O)c1cc(C)c(O)c(Cc2[nH]c3ccc(-c4cc(C)cc(C)c4)cc3c2Cc2c(O)c(C)cc(C(C)=O)c2O)c1O | > 300 µM | > 22.2
10 | CC(=O)c1cc(C)c(O)c(Cc2[nH]c3cc(-c4cc(C(F)(F)F)cc(C(F)(F)F)c4)ccc3c2Cc2c(O)c(C)cc(C(C)=O)c2O)c1O | > 300 µM | 
11 | CC(=O)c1cc(C)c(O)c(Cc2[nH]c3ccc(-c4c5ccccc5c(-c5ccccc5)c5ccccc45)cc3c2Cc2c(O)c(C)cc(C(C)=O)c2O)c1O | > 300 µM | 
12 | CC(=O)c1cc(C)c(O)c(Cc2c(Cc3c(O)c(C)cc(C(C)=O)c3O)n(N)c3ccccc23)c1O | > 300 µM | 
13 | CC(=O)c1cc(C)c(O)c(Cc2[nH]c3cc(-c4ccc5c(c4)OCCO5)ccc3c2Cc2c(O)c(C)cc(C(C)=O)c2O)c1O | > 300 µM | > 15.5
14 | CC(=O)c1cc(C)c(O)c(Cc2[nH]c3ccc(-c4ccc5c(c4)OCCO5)cc3c2Cc2c(O)c(C)cc(C(C)=O)c2O)c1O | > 300 µM | > 23.1
15 | COc1cc(-c2ccc3c(Cc4c(O)c(C)cc(C(C)=O)c4O)c(Cc4c(O)c(C)cc(C(C)=O)c4O)[nH]c3c2)cc(OC)c1OC | > 300 µM | > 14.9
16 | CC(=O)c1cc(C)c(O)c(Cc2[nH]c3ccc(-c4ccc(C)cc4)cc3c2Cc2c(O)c(C)cc(C(C)=O)c2O)c1O | > 300 µM | > 19.4

Row | SMILES | CC50 at 48 h [1] | selectivity ratio [2]
17 | CC(=O)c1cc(C)c(O)c(Cc2[nH]c3ccc(-c4ccc5ccccc5c4)cc3c2Cc2c(O)c(C)cc(C(C)=O)c2O)c1O | > 300 µM | > 14.5
18 | CC(=O)c1cc(C)c(O)c(Cc2[nH]c3cc(-c4ccc(Cl)cc4)ccc3c2Cc2c(O)c(C)cc(C(C)=O)c2O)c1O | > 300 µM | 
19 | CC(=O)c1cc(C)c(O)c(Cc2c(Cc3c(O)c(C)cc(C(C)=O)c3O)n(Cc3ccccc3)c3ccccc23)c1O | > 300 µM | 
20 | COc1ccc2cc(-c3ccc4c(Cc5c(O)c(C)cc(C(C)=O)c5O)c(Cc5c(O)c(C)cc(C(C)=O)c5O)[nH]c4c3)ccc2c1 | > 300 µM | > 12.9
21 | CC(=O)c1cc(C)c(O)c(Cc2[nH]c3cc(-c4ccc5ccccc5c4)ccc3c2Cc2c(O)c(C)cc(C(C)=O)c2O)c1O | > 300 µM | > 11.5
22 | CC(=O)c1cc(C)c(O)c(Cc2[nH]c3cc(-c4c5ccccc5cc5ccccc45)ccc3c2Cc2c(O)c(C)cc(C(C)=O)c2O)c1O | > 300 µM | > 36.1
23 | COc1ccc(Cn2c(Cc3c(O)c(C)cc(C(C)=O)c3O)c(Cc3c(O)c(C)cc(C(C)=O)c3O)c3ccccc32)cc1 | > 300 µM | 
24 | CC(=O)c1cc(C)c(O)c(Cc2[nH]c3ccc(/C=C/c4ccccc4)cc3c2Cc2c(O)c(C)cc(C(C)=O)c2O)c1O | > 300 µM | 
25 | CC(=O)c1cc(C)c(O)c(Cc2[nH]c3ccc(-c4ccsc4)cc3c2Cc2c(O)c(C)cc(C(C)=O)c2O)c1O | > 300 µM | 
26 | CC(=O)c1cc(C)c(O)c(Cc2[nH]c3ccc(C)cc3c2Cc2c(O)c(C)cc(C(C)=O)c2O)c1O | > 300 µM | > 14.6
27 | COc1cc(-c2ccc3[nH]c(Cc4c(O)c(C)cc(C(C)=O)c4O)c(Cc4c(O)c(C)cc(C(C)=O)c4O)c3c2)cc(OC)c1OC | > 300 µM | > 37.5
28 | CC(=O)c1cc(C)c(O)c(Cc2[nH]c3cc(/C=C/c4ccccc4)ccc3c2Cc2c(O)c(C)cc(C(C)=O)c2O)c1O | > 300 µM | 
29 | CC(=O)c1cc(C)c(O)c(Cc2[nH]c3cc(-c4ccccc4)ccc3c2Cc2c(O)c(C)cc(C(C)=O)c2O)c1O | > 300 µM | > 12.8
30 | CC(=O)c1cc(C)c(O)c(Cc2[nH]c3cc(-c4ccsc4)ccc3c2Cc2c(O)c(C)cc(C(C)=O)c2O)c1O | > 300 µM | 
31 | CC(=O)c1cc(C)c(O)c(Cc2[nH]c3cc(-c4ccc5c(c4)CCO5)ccc3c2Cc2c(O)c(C)cc(C(C)=O)c2O)c1O | > 300 µM | 
